Data set [1] relates to LoVo colon adenocarcinoma cells. Description: MTS cytotoxicity assay, LoVo. The data set is classed as cell-based. Conditions: Homo sapiens, read-out: cell viability. (In general: Tetrazolium assays rely on reduction of a dye to a coloured formazan, in cell work by metabolically active cells.)
Data set [2] has the same test system. Description: MTS cytotoxicity assay, LoVo. The format is cell-based, human. On the procedure: (§1) Therefore, the precursor acids 2a–c and corresponding pyrrolo[1,2-b]pyridazines 5a–c,f were tested for their potential cytotoxic activity. During the assays, increasing concentrations of the compounds, ranging from […], were added for 24 h or 48 h to cancer LoVo, SK-OV-3, MCF-7, and the reference HUVEC cells, previously cultured for 24 h in 96-well flat bottom plates. […] Then, MTS reagent was added, and cells were incubated for 4 h at 37 °C in a 5% CO2 humidified atmosphere. The absorbance values were spectrophotometrically read to a Dynex ELISA reader at λ = […].
(§2) For the evaluation of the in vitro potential anti-proliferative effects of treatments with the new compounds under study against solid tumor-derived cells, several compound-mediated cytotoxicity assays were performed on three adherent tumor standardized cell lines, and normal human endothelial cells, used as control: the MCF-7 human breast adenocarcinoma and SK-OV-3 human ovary adenocarcinoma cell lines were provided from European Collection of Authenticated Cell Cultures (ECACC), while LoVo, human colorectal adenocarcinoma cell line, and HUVEC human umbilical vein endothelial cells were purchased from American Type Culture Collection (ATCC).
(§3) Adherent cells were cultivated in DMEM/F12 medium added with 2 mM L-glutamine and 10% fetal bovine serum, 100 units/mL penicillin, 100 µg/mL streptomycin (Sigma Aldrich, St. Louis, MO, USA) and incubated at 37 °C in 5% CO2 humidified atmosphere. The stock solutions for cell treatments were prepared by dissolving the synthesized compounds in a minimum amount of DMSO. Working dilutions were prepared from the stock solutions in culture medium before each treatment assay. After 24 h, when cell cultures achieved around 70% confluence, treatments were applied for various periods of time with different concentrations of synthesized compounds or oncolytic drugs, used as positive controls.
(§4) Therefore, cell cultures treated with the new compounds or oncolytic drugs for 24 h or 48 h were further subjected to a colorimetric cell viability method, the MTS assay. The absorbance of probes was read, data were calculated, and percentages of cell viability were assessed.
(§5) The evaluation of the compound-induced cytotoxicity was made using the CellTiter 96 Aqueous One Solution Cell Proliferation Assay (Promega, Madison, WI, USA), a reagent that contains both MTS (3-(4,5-dimethylthiazol-2-yl)-5-(3-carboxymethoxyphenyl)-2-(4-sulfophenyl)-2H-tetrazolium, inner salt) and PES ([…], a cationic dye with high chemical stability that binds to MTS and forms a stable solution).
(§6) Briefly, 1.5 × 10^4 cancer or normal cells were cultured in 100 µL/well for 24 h. After the culture supernatants were discarded, cells were treated for additional 24 h or 48 h with increasing concentrations of new compounds or oncolytic drugs. Following the specific treatments, in each well a volume of 20 µL of coloring mixture reagent of MTS and PES was added, and then the plates were incubated with mild agitation every 20 min for 4 h at 37 °C. The color developed during incubation was spectrophotometrically quantified at λ = 492 nm using a Dynex ELISA reader (DYNEX Technologies—MRS, Chantilly, VA, USA).
(§7) Data were expressed as percentages of cell viability of the treated cells, and were calculated and compared to the untreated cells (considered 100% viable), using the formula:Cell viability (%) = (T − B)/(U − B) × 100 where T = absorbance of treated cells, U = absorbance of untreated cells, and B = absorbance of culture medium (blank), for λ = 492 nm.
(§8) The cell viability data were expressed as the mean values ± standard deviations (SD) of three different experiments (n = 3). […] Moreover, a parallel experiment was performed in the absence of cells, with all the concentrations of the compounds being tested for their potential interference with MTS reagents; then, their absorbance values were extracted during calculations.

The nature of data set [3]: Daphnia magna toxicity assay. The data set is classed as in vivo. Conditions: Daphnia magna, in vivo; 48 h. The protocol: (§9) Young organisms of Daphnia magna were selected according to their size from a parthenogenetic culture maintained in an artificial medium for 24 h before the bioassay. The determination was conducted in tissue culture plates with 12 wells (Greiner Bio-One, Monroe, NC, USA), with 10 organisms in each well, and a final volume of 3 mL per sample [65, 66]. As a negative control, DMSO was used at a concentration of 1%. All compounds were tested at six different concentration levels, ranging from 12.5 to 500 μg/mL. All assessments were performed in duplicate.

In data set [4] the test system is Daphnia magna Straus. The data set can be described thus: Daphnia magna toxicity assay. The format is in vivo. Conditions: for L% values (lethality) / toxicity on Daphnia magna: 48 h; for L% values (lethality): all tested concentrations. On the procedure: as §9
For data set [5], the system named is SK-OV-3 ovary adenocarcinoma cells. Description: MTS cytotoxicity assay, SK-OV-3. The format is cell-based, human. The protocol: as §1, §2, §3, §4, §5, §6, §7, §8
Data set [6] deals with MCF-7 breast adenocarcinoma cells. Description: MTS cytotoxicity assay, MCF-7. Conditions: Homo sapiens, MCF7; for viability at 400 µM: MCF-7, 400 μM, 48 h, read-out: cell viability; for IC50: MCF-7, 48 h, read-out: IC50 MCF-7 48 h. The data set is classed as cell-based, human. The protocol: as §1, §2, §3, §4
as §5, with “solution). The assay is based on the ability of the metabolically active cells to reduce the yellow tetrazolium salt MTS to a compound that is soluble in culture medium, the colored formazan, followed by the spectrophotometric evaluation of its concentration.” for “solution).”
as §6, §7
The cell viability data were expressed as the mean values ± standard deviations (SD) of three different experiments (n = 3). […]

Data set [7] concerns Triticum vulgare root tips. Description: Microscopic examination of Triticum root tips (mitotic film changes). Conditions: 24 h contact. The format is in vivo. On the procedure: Microscopic examination of Triticum vulgare root tips followed the mitotic film changes induced by the tested compounds. Observations were made after 24 h of contact of the caryopses with the test solutions. The study was made in comparison with DMSO control maintained under the same conditions as the samples. To obtain microscopic preparations, sectioning of wheat embryonic roots was carried out at about 5 mm from the tip and stained with dilute […] according to the La Cour procedure. The examination was conducted on a Euromex oxion series 110–240 V/50–60 Hz microscope with digital camera CEMEX 5 DC 5000 C and 40× and 100× lenses with cedar oil immersion (Sigma-Aldrich St. Louis, MO, USA).

Data set [8] has as its system Triticum aestivum L. The data set can be described thus: Triticum test, phytotoxicity (main root length). The data set is classed as in vivo. Conditions: Triticum aestivum, 72 h; Triticum root length, 10–1000 µM, measured over three days. On the procedure: Phytobiological testing (Triticum test) was performed by the Constantinescu method which consists in determining the maximum active dilution of a compound. Depending on the duration of action, it can influence root elongation and the […] film. […] Embryonic wheat roots were obtained by germinating homogeneous wheat caryopses in Linhart pots. Then the caryopses with a main root length of 1 cm were placed in the test solutions. For the determination of the action of each compound, five dilutions in the concentration range of 10–1000 µM were obtained and 11 caryopses were placed in them. Petri dishes containing 15 mL of diluted solution were kept under constant conditions of temperature (25 °C), and humidity (60%), in the absence of light. […] The results were expressed in comparison with a 1% DMSO control.
Statistical analyses were performed using the computing and programming environment R, R, v. 4.2.1 [68], under Rstudio, v. 2022.07.2+576 “Spotted Wakerobin” for Windows (RStudio, PBC, Boston, 2022), both for the Triticum and Artemia tests. It used a parametric mixed-effects model (R package “lme4”) and a robust mixed-effects model (R package “robustlmm”), in which root length measurements (Triticum) from all three days were used as the dependent variable, whereas compound, concentration and time were treated as fixed effects, with time (day of measurement) also treated as a random effect. Assessing statistical significance for mixed-effects statistical models is controversial and complex, but as a pragmatic way of working, we have estimated p-values using the Kenward–Rogers approximation (R package “sjPlot”). A variety of R base functions and R packages were used to diagnose the regression models (“car” [72], “MASS” [73], and “gvlma” [74]). Mixed boxplot–dotplot plots were generated using the “ggplot2” package.
The “drc” R package was used to estimate IC50 values for the Triticum bioassay by nonlinear modeling. For Triticum, the relationship between root length and concentration was modeled using Weibull functions with 2, 3, or 4 parameters, depending on the data distribution, the models being selected from a range of several models with different functions and parameters, based on the Akaike’s information criterion (AIC).

The subject of data set [9] is SK-OV-3 ovary adenocarcinoma cells. Description: MTS cytotoxicity assay, SK-OV-3. The format is cell-based. Particulars: Homo sapiens; SK-OV-3, 400 μM, 24 h; read-out: cell viability.
Where [10] appears, read: Homo sapiens, 24 h, read-out: IC50 LoVo 24 h.
[11] abbreviates: Homo sapiens, 48 h, read-out: IC50 LoVo 48 h.
Where [12] appears, read: Homo sapiens, SK-OV-3, 24 h, read-out: IC50 Sk-OV-3 24 h.
Setting [13] is: Homo sapiens, SK-OV-3, 48 h, read-out: IC50 Sk-OV-3 48 h.

These results are taken from article PMC10380841, “Synthesis, Characterization and Cytotoxic Evaluation of New Pyrrolo[1,2-b]pyridazines Obtained via Mesoionic Oxazolo-Pyridazinones” (International Journal of Molecular Sciences, 2023).

Entries after “also recorded” stand apart in the source; their conditions may differ. Read-outs that look alike come from different tables or passages of the source.

As usually defined, the viability is a read-out of living cells in per cent, often relative to untreated cells. As a reminder, the IC50 is the concentration needed to halve the response being measured. One may read the LC50 as the concentration lethal to half of the exposed cells or organisms. Low values mean a more lethal substance, high ones a less lethal substance. For `CCc1cc(C(=O)OC)c2ccc(-c3ccc(Cl)cc3)nn12` [Compound 5c, Methyl 2-(4-chlorophenyl)-7-ethylpyrrolo[1,2-b]pyridazine-5-carboxylate], the viability at 400 µM was 68.6% in data set [1] (24 h), 61.1% in [1] (48 h) and 88.5% in [6]. For the same compound, the IC50 in [2] (setting [10]), in data set [2] (setting [11]), in data set [5] (setting [12]), in [5] (setting [13]) and in data set [6] was ≥ 400 µM in each case. Moreover, the LC50 at 48 h in [3] was ~107 µM. The “L% values (lethality)” value in [4] is on record as “ND ** (all L% values were in range of 30 to 70%, independent of concentration)”.
With `CCC(C(=O)O)n1nc(-c2ccc(F)cc2)ccc1=O` (stereo not drawn) [Compound 2b, 2-[6-Oxo-3-(4-fluorophenyl)pyridazin-1-yl]butanoic acid], the viability at 400 µM in [1] (24 h) stood at 91%; in data set [1] (48 h), 81.1%. Besides, the “mitotic film / cell changes in root tips” value in [7] (1000 μM) was “Mitoinhibition and cells with 1-3 nucleoli”. For the same compound, the IC50 in [2] (setting [10]) was ≥ 400 µM; in data set [2] (setting [11]), ≥ 400 µM; in [8], 204 µM; in [5] (setting [12]) it was ≥ 400 µM; in data set [5] (setting [13]) it was ≥ 400 µM; in [6], ≥ 400 µM. Further, the “toxicity on Daphnia magna” value in data set [4] was “no toxicity”. Also, the “L% values (lethality)” value in [4] is “ND * (all L% values were lower than 30%)”.
In the case of `CCc1cc(C(=O)OC)c2ccc(-c3ccc(F)cc3)nn12` [Compound 5b, Methyl 7-ethyl-2-(4-fluorophenyl)pyrrolo[1,2-b]pyridazine-5-carboxylate], in data set [1] (48 h), the viability at 100 µM amounted to 79.4%. In addition, the viability at 400 µM in data set [1] (24 h) turned out to be 87.8%; in [1] (48 h), 60.3%; in data set [9] it was 78%; in [6] it was 89.7%. For the same compound, in [7] (1000 μM), the “mitotic film / cell changes in root tips” value is reported as “telophase in tropokinesis, normal, or disorganized metaphase”. For the same compound, the IC50 in data set [2] (setting [10]), in data set [2] (setting [11]), in data set [5] (setting [12]), in [5] (setting [13]) and in data set [6] was ≥ 400 µM each time. For the same compound, in data set [3], the median lethal concentration (LC50) at 48 h amounted to 463 µM. The “toxicity on Daphnia magna” value in data set [4] was “moderate toxicity”.
For the compound `N.N.[Cl][Pt][Cl]` [CisPt, cisplatin, reference compound], the IC50 in data set [2] (24 h, read-out: IC50 LoVo 24 h) amounted to 79.1 ± 4.75 µM; in data set [2] (48 h, read-out: IC50 LoVo 48 h), 57 ± 0.95 µM; in data set [5] (SK-OV-3, 24 h, read-out: IC50 Sk-OV-3 24 h), 92.2 ± 3.45 µM; in data set [5] (SK-OV-3, 48 h, read-out: IC50 Sk-OV-3 48 h), 78.2 ± 4.01 µM.
Consider `CCc1cc(C(=O)OC)c2ccc(-c3ccccc3)nn12` [Compound 5a, Methyl 7-ethyl-2-phenylpyrrolo[1,2-b]pyridazine-5-carboxylate], for which the viability at 50 µM in [1] (24 h) amounted to 79%; in data set [1] (48 h) it was 65.3%. The viability at 100 µM in data set [1] (24 h) was found to be 78.1%; in data set [1] (48 h), 58.2%. Besides, in data set [1] (200 μM, 48 h), the viability at 200 µM is 52.5%. The values for the viability at 400 µM in data set [1] (24 h) and in data set [1] (48 h) were 63.5% and 48.5%, respectively. In addition, the “mitotic film / cell changes in root tips” value is given as “bridged telophase, disorganized metaphase” in data set [7] (100 µM) and “telophase with delayed chromosome, wavy cell walls; also recorded: no mitoinhibitory effect” in data set [7] (1000 μM). Moreover, the IC50 in data set [2] (setting [10]) was ≥ 400 µM; in [2] (setting [11]), 304 ± 4.85 µM. The LC50 at 48 h in data set [3] came out at 46.1 µM. Moreover, the “maximum lethality (L%)” value in data set [4] (24 h) was 40%.
